21 compounds from EP0076669A1, “Novel 3-phenyl-1-indanamines, pharmaceutical compositions and methods of preparation” (KEFALAS A/S, priority 1981, dated 1983) can be followed below.

In general, ED50 refers to the dose that gives a 50% effect, or the effect in half of the subjects. The IC50 is the concentration that inhibits the measured activity by half.

Like-named read-outs stand apart in the source and are kept apart here.

Test [1] relates to tetrabenazine induced ptosis. Description: Tetrabenazine ptosis antagonism. The class given is in vivo. The conditions noted are these: Mus musculus, ip, 0.5 h; i.p., mice; tetrabenazine 40 mg/kg i.p. 30 min after test substance. On the procedure:
For insoluble substances the doses 0, 1/8, 1/32 and 1/128 of "i.^p. LD50" are used. 3 mice are used for each dose level. Thirty minutes after administration of test substance, tetrabenazine, 40 mg/kg, is injected i.p. Ptosis is evaluated 30 minutes after administration of tetrabenazine, the following rating scale being used: 0 = normal eyes, 1=1/4 closed eyes, 2 = 1/2 closed eyes, 3 = 3/4 closed eyes and 4 = completely closed eyes. Ptosis is evaluated 30 seconds after tilting the cage 3 times. The tilting is carried out in such a way that the animals slide along the floor of the cage.
The results are recorded as % inhibition of ptotic score calculated on the basis of the score of the control group. If ptotic score for the control group is < 10 the test is rejected and another is performed. The registration can also be done as an on line procedure.

The subject of another test is potentiation of 5-HTP. Description: 5-HTP potentiation (5-HTP syndrome). The class given is in vivo. The conditions noted are these: Mus musculus, ip, 0.5 h; i.p., mice; 5-HTP 100 mg/kg i.v. 30 min after test substance; read-out: 5-HTP potentation,ED50. The method, then:
The test substance is given i.p. or p.o. in the doses 10, 10, 2.5, 0.63 and 0 mg/kg. Three mice are used for each dose level. One of the groups on the highest dose is used as control of the compounds own effect. […] Thirty minutes after administration of test substance, 5-HTP, 100 mg/kg i.v. is given (injection time 5-10 sec.). After this 5-HTP dose the animals remain unaffected. If the animals have been pretreated with a substance, which inhibits the re-uptake of 5-HT, a 5-HTP syndrome will occur. This is characterized by the following symptoms: 1) excitation, 2) tremor, and 3) abduction of the hind limbs.
After the administration of 5-HTP the animals are observed for 15 minutes and each animal is given one point for each symptom present. Thus, the maximal score for a group consisting of 3 mice is 9.
The results are stated as fractions: 0/9, 1/9, 2/9 ..... 8/9, 9/9, where 0, 1, 2 ..... 8, 9 are the number of points per group after the dose in question.

The target of test [2] is T1, ^3H-DA uptake in striatal synaptosomes (Rattus norvegicus, UniProt P23977).
T1 construct: the two corpura striata are dissected out and gently homogenized; from tissue; host or cells: rat corpus striatum, synaptosomal P2 fraction
T1 sequence (P23977 whole entry): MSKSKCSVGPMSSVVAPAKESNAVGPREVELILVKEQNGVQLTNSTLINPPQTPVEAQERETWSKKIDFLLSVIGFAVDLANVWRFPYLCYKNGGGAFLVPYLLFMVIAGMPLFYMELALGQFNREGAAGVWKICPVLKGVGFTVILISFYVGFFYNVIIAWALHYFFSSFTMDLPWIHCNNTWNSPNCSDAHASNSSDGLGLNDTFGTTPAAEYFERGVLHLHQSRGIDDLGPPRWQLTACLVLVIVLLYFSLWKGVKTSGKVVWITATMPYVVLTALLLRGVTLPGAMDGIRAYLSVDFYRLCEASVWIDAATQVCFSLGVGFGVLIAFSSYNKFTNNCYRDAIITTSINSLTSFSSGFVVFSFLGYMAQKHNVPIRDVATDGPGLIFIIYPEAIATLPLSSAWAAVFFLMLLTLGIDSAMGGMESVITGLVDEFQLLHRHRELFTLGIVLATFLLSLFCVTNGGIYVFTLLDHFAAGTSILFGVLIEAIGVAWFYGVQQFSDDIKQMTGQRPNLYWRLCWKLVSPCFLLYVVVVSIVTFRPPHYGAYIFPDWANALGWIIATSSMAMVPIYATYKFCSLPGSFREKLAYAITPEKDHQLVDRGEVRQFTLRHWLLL
Description: biochemical. It counts as biochemical, Rats. The method, then:
^3H-DA uptake in striatal synaptosomes in vitro.
(§1) 0.32 M sucrose containing 1 mM Nialamide
Krebs-Ringer-phosphate buffer, pH 7.4
3,4-dihydroxyphenylethylamine [ethyl-1-^3H(N)] = ^3H-DA, spc. act. app. 15 Ci/mmol, New England Nuclear
(§2) Thomas Tissue Grinder, clearance 0.004-0.006 inch.
Rats are killed by a blow to their head, exsanguinated and their brains removed. The brain is placed on a precooled glassplate, and the two corpura striata are dissected out and gently homogenized in 40 volumes of ice cold 0.32 M sucrose containing 1 mM of nialamide using a hand homogenizer with teflon pestle. The P2-fraction (synaptosomal fraction) is obtained by centrifugation (600 g, 10 min., 25000 g, 55 min. 4 °C) and suspended in 40 volumes of a modified Krebs-Ringer-phosphate buffer, pH 7.4. To 200µl of the synaptosomal fraction on ice are added 3700 µl modified Krebs-Ringer-phosphate buffer - containing test compounds. After a preincubation at 37°C for 5 min. […] The incubation is terminated by filtering the samples under vacuum through Millipore filters with a wash of 5 ml buffer containing 10 µM of unlabelled DA. After solubilizing the filters in 1 ml of cellosolve the radioactivity is determined by liquid scintillation counting after the addition of 10 ml of Insta-Gel. The unspecific binding of ^3H-DA is determined by incubating control samples on ice instead of at 37 °C.
All experiments are performed in ttriplicate.
The mean of all control samples and ice samples are calculated.

For test [3], the target named is T2, ^3H-5-HT uptake in synaptosomes (Rattus norvegicus, UniProt P31652).
T2 construct: Rest of the brain is gently homogenized (glass teflon homogenizer); from tissue; host or cells: rat brain without cerebellum, pons and medulla oblongata, synaptosomal P2 fraction
T2 sequence (P31652 whole entry): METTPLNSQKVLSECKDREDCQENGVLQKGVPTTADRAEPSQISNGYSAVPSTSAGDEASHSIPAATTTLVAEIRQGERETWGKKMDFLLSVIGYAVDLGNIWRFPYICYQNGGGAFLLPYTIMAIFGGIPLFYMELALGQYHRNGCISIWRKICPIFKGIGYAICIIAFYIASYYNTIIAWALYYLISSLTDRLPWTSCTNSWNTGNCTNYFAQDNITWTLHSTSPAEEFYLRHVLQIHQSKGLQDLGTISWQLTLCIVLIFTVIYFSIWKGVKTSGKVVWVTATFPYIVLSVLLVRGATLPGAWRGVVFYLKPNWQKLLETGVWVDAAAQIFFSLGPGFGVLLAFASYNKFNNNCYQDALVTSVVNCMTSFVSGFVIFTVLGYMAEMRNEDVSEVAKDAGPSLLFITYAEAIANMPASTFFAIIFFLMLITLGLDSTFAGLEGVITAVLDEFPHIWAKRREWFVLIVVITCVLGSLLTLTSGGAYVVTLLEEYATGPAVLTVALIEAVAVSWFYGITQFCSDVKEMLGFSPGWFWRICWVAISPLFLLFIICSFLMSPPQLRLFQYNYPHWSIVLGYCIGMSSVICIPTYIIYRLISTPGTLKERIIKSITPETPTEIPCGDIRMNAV
Briefly: Inhibition of 3H-5-HT uptake in synaptosomes in vitro. The class given is biochemical, Rats. The method, then: Inhibition of ^3H-5-HT uptake in synaptosomes in vitro.
as §1
Krebs-Ringer-Phosphate buffer, pH 7.4
Millipore filters (HAWPO 2500, 0.45 µ)
5-hydroxy [G-^3H] tryptamine creatinine sulphate = ^3H-5-HT, spc. act. app. 10 Ci/mmol, The Radiochemical Centre, Amersham.
as §2
Rats are killed by a blow on the head and exsanguinated. The brain is quickly removed, rinsed for blood and placed on a cold plate. The cerebellum, pons and medulla oblongata are removed. Rest of the brain is gently homogenized (glass teflon homogenizer) in 40 volumes of ice cold 0.32 M of sucrose containing 1 mM of nialamide. The P2 fraction (synaptosomal fraction) is obtained by centrifugation (600 g, 10 min. and 25000 g, 55 min., 4°C) and suspended in 40 volumes of a modified Krebs-Ringer-Phosphate buffer, pH 7.4.
To 200µl of the synaptosomal suspension on ice are added 3700 µl modified Krebs-Ringer-phosphate buffer, pH 7.4, containing test substances. After preincubation at 37°C for 5 min., 100 µl of ^3H-5-HT (final concentration in the samples = 10 nM) are added and the samples are incubated for 10 min. at 37 °C. The incubation is terminated by filtering the samples under vacuum through Millipore filters with a wash of 5 ml buffer containing 10 µM of unlabelled 5-HT. After solubilizing the filters in I ml of cellosolve, 10 ml of Instagel are added, and the radioactivity is determined by liquid and scintillation counting. The unspecific binding and passive transport of ^3H-5-HT is determined by incubating control samples on ice instead of at 37°C. All experiments are performed in triplicate. The mean of all control samples are calculated.
The IC50- values are determined as the concentrations, at which the uptake are 50 per cent of the uptake in control sample -uptake in ice samples.

Setting [4] is: rat striatal synaptosomes, 3H-DA 12.5 nM, read-out: Uptake Inhibition IC50 DA.
The mark [5] stands for this setting: rat brain synaptosomes, 3H-5-HT 10 nM, read-out: Uptake Inhibition IC50 5-HT.
[6] abbreviates: read-out: Uptake Inhibition IC50 DA.

For the compound `Cc1ccc2c(c1)[C@H](N(C)C)C[C@H]2c1ccc(F)cc1` (relative stereo) [Lu 18-125-c], the ED50 in test [1] amounted to 41 µmol/kg; in the test on potentiation of 5-HTP, 44 µmol/kg. The IC50 stood at 100 nM in test [2] (setting [4]) and 9.8 nM in test [3] (setting [5]).

`CCN(CC)[C@@H]1C[C@@H](c2ccc(F)cc2)c2ccc(F)cc21` (relative stereo) [Lu 18-149-c]: in test [1], the ED50 stood at 52 µmol/kg. Further, the IC50 in test [2] (setting [4]) is 68 nM; in test [3] (setting [5]), 140 nM.

Regarding `CCN(CC)[C@@H]1C[C@@H](c2ccc(F)cc2)c2ccc(C)cc21` (relative stereo) [Lu 18-200-c], the 50% effect level in test [1] (ED50) was put at a dose of 63 µmol/kg. The IC50 in test [2] (setting [4]) was 210 nM.

`CSc1ccc2c(c1)[C@H](N(C)C)C[C@H]2c1ccc(F)cc1` (relative stereo) [Lu 19-016-c]: the ED50 in test [1] is 35 µmol/kg; in the test with potentiation of 5-HTP, 39 µmol/kg. Moreover, the values for the IC50 in test [2] (setting [4]) and in test [3] (setting [5]) were 170 nM and 4.5 nM, respectively.

On to `CN(C)[C@@H]1C[C@@H](c2ccc(N)cc2)c2ccc(F)cc21` (relative stereo) [Lu 19-021], for which the ED50 in test [1] is 9 µmol/kg; with potentiation of 5-HTP, 15 µmol/kg. Also, the IC50 was found to be 190 nM in test [2] (setting [4]) and 330 nM in test [3] (setting [5]).

In test [1], `CN(C)CCC=C1c2ccccc2CCc2ccccc21` [Amitrip-tyline, amitriptyline, reference compound] had an ED50 of 7 µmol/kg. Further, it took 5400 nM to reach half-maximal inhibition in test [2] (IC50).

On to `Cc1ccc2c(c1)C(N(C)C)CC2c1ccc(F)cc1` (stereo not drawn) [Lu 18-119], for which the ED50 in test [1] is 45 µmol/kg; in the test with potentiation of 5-HTP it was > 37 µmol/kg. In addition, the IC50 was 71 nM in test [2] (setting [4]) and 1.4 nM in test [3] (setting [5]).

Turning to `CN(C)C1CC(c2ccc(Cl)c(Cl)c2)c2ccccc21` (stereo not drawn) [Lu 18-122-c], the ED50 in test [1] stood at 14 µmol/kg; with potentiation of 5-HTP, 10 µmol/kg. In addition, the IC50 came to 27 nM in test [2] (setting [4]) and 0.37 nM in test [3] (setting [5]).

In the case of `CN(C)C1CC(c2ccc(Cl)cc2Cl)c2ccccc21` (stereo not drawn) [Lu 18-137-c], the ED50 in test [1] worked out at 23 µmol/kg; in the test with potentiation of 5-HTP, 19 µmol/kg. Further, the IC50 in test [2] (setting [4]) stood at 860 nM; in test [3] (setting [5]), 0.03 nM.

Take `CN(C)C1CC(c2ccc(F)cc2)c2ccc(F)cc21` (stereo not drawn) [Lu 18-147]: the ED50 in test [1] is > 147 µmol/kg; with potentiation of 5-HTP, 21 µmol/kg. The IC50 in test [2] (setting [4]) came out at 440 nM; in test [3] (setting [5]), 1.2 nM.

Take `CCN(CC)C1CC(c2ccc(F)cc2)c2ccc(F)cc21` (stereo not drawn) [Lu 18-148-c]: the ED50 in test [1] is > 118 µmol/kg. Besides, the IC50 was 1600 nM in test [2] (setting [4]) and 440 nM in test [3] (setting [5]).

For the compound `CN(C)C1CC(c2ccc(F)cc2)c2ccc(C(F)(F)F)cc21` (stereo not drawn) [Lu 18-150-c], the ED50 was > 111 µmol/kg in test [1] and 101 µmol/kg with potentiation of 5-HTP. For the same compound, the figures for the IC50 in test [2] (setting [4]) and in test [3] (setting [5]) were 340 nM and 4.3 nM, respectively.

Take `CCN(CC)C1CC(c2ccc(Cl)c(Cl)c2)c2ccccc21` (stereo not drawn) [Lu 18-188-c]: in test [1], the ED50 is > 108 µmol/kg. In addition, the IC50 is 120 nM in test [2] (setting [6]) and 13 nM in test [3] (setting [5]).

As for `CN(C)C1CC(c2ccc(F)cc2)c2ccccc21` (stereo not drawn) [Lu 19-008-c], the results for the ED50 (in test [1]; with potentiation of 5-HTP) were > 137 µmol/kg and 25 µmol/kg, respectively. Moreover, the IC50 in test [2] (setting [4]) came out at 250 nM.

For the compound `CSc1ccc2c(c1)C(N(C)C)CC2c1ccc(F)cc1` (stereo not drawn) [Lu 19-017-c], the figures for the ED50 (in test [1]; with potentiation of 5-HTP) were 27 µmol/kg and 23 µmol/kg, respectively. Further, the IC50 is 150 nM in test [2] (setting [4]) and < 1 nM in test [3] (setting [5]).

Turning to `CN(C)C1CC(c2ccc(N)cc2)c2ccc(F)cc21` (stereo not drawn) [Lu 19-022-c], the ED50 came to 19 µmol/kg in test [1] and 14 µmol/kg with potentiation of 5-HTP. For the same compound, in test [2] (setting [4]), the IC50 came out at 170 nM.

For `CN(C)C1CC(c2ccccc2)c2ccccc21` (stereo not drawn) [Lu 19-025-c, reference compound], the ED50 is > 143 µmol/kg in test [1] and > 36 µmol/kg in the test with potentiation of 5-HTP. Further, the results for the IC50 in test [2] (setting [6]) and in test [3] (setting [5]) were 340 nM and 9.5 nM, respectively.

Regarding `NC1CC(c2ccc(Cl)c(Cl)c2)c2ccccc21` (stereo not drawn) [Lu 19-030-o], the figures for the ED50 (in test [1]; in the test with potentiation of 5-HTP) were 16 µmol/kg and > 27 µmol/kg, respectively. For the same compound, the IC50 in test [2] (setting [4]) was 7.4 nM; in test [3] (setting [5]) it was 15 nM.

On to `CN(C)C1CC(O)(c2ccc(Cl)c(Cl)c2)c2ccccc21` (stereo not drawn) [Lu 19-034, N,N-Dimethyl-3-(3,4-dichlorophenyl)-3-hydroxy-1-indanamine], for which the ED50 in test [1] was 9 µmol/kg; in the test on potentiation of 5-HTP, 11 µmol/kg. For the same compound, the IC50 is 130 nM in test [2] (setting [4]) and 1.7 nM in test [3].

Regarding `CCNC1CC(c2ccc(Cl)c(Cl)c2)c2ccccc21` (stereo not drawn) [Lu 19-041-c], the ED50 in test [1] was > 117 µmol/kg; with potentiation of 5-HTP, 24 µmol/kg. For the same compound, in test [2] (setting [4]), the IC50 is 62 nM.

With `CN1Cc2c(N)cccc2C(c2ccccc2)C1` (stereo not drawn) [Nomi-phensine, nomiphensine, reference compound], the ED50 in test [1] is 4.3 µmol/kg; with potentiation of 5-HTP, > 56 µmol/kg.
